Bridge positions count the residues as written; N and C are the ends. Square brackets hold non-standard residues; d marks the D form. Peptide text beside a SMILES is read from it. * marks the point of attachment. Bn = c1ccc(C*)cc1
Molecular target: hMC4-R (Homo sapiens (Human), UniProt P32245)
Test: Competitive inhibition binding assay using [I125]-NDP-α-MSH, hMC4-R membranes
Conditions: averaged; [I125]-NDP-α-MSH (values not marked *); read-out: MC4-R Ki
Protocol: A competitive inhibition binding assay is performed using membrane homogenates prepared from HEK-293 cells that express recombinant hMC4-R, hMC3-R, or hMC5-R, and from B-16 mouse melanoma cells (containing endogenous MC1-R). In some instances, HEK-293 cells that express recombinant hMC1-R were employed. In the examples that follow, all MC3-R, MC4-R and MC5-R values are for human recombinant receptors. […] Membrane homogenates were incubated with 0.2 nM (for hMC4-R) 0.4 nM (for MC3-R and MC5-R) or 0.1 nM (for mouse B16 MC1-R or hMC1-R) [I^125]-NDP-α-MSH (Perkin Elmer) and increasing concentrations of test peptides of the present invention in buffer containing 25 mM HEPES buffer (pH 7.5) with 100 mM NaCl, 2 mM CaCl2, 2 mM MgCl2, 0.3 mM 1,10-phenanthroline, and 0.2% bovine serum albumin. After incubation for 60 minutes at 37° C., the assay mixture was filtered and the membranes washed three times with ice-cold buffer. Filters were dried and counted in a gamma counter for bound radioactivity. […] Maximal specific binding (100%) was defined as the difference in radioactivity (cpm) bound to cell membranes in the absence and presence of 1 μM NDP-α-MSH. […] Each assay was conducted in triplicate and the actual mean values are described, with results less than 0% reported as 0%. Ki values for test peptides of the present invention were determined using Graph-Pad Prism® curve-fitting software.

Sequence of hMC4-R (P32245 whole entry): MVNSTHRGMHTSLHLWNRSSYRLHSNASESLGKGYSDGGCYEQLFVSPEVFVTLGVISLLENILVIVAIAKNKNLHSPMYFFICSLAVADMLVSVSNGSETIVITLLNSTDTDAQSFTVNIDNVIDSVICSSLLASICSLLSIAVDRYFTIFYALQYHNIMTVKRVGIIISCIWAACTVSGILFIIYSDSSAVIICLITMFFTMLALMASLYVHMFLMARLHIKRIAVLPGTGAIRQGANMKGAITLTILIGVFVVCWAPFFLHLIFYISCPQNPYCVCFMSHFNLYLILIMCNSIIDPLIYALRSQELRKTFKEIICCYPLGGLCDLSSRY

SMILES	Ki [nM]
CC(=O)N[C@@H](CCCNC(=N)N)C(=O)N[C@H]1CC(=O)NCCCC[C@@H](C(N)=O)NC(=O)[C@H](Cc2c[nH]c3ccccc23)NC(=O)[C@H](CCCNC(=N)N)NC(=O)[C@@H](Cc2ccccc2)NC(=O)[C@H](CO)NC1=O [Peptide No. 3, Ac-Arg-cyclo(Asp-Ser- D-Phe-Arg-Trp-Lys)- NH2]	172
CC(=O)N[C@@H](CCCNC(=N)N)C(=O)N[C@H]1CC(=O)NCCCC[C@@H](C(N)=O)NC(=O)[C@H](Cc2c[nH]c3ccccc23)NC(=O)[C@H](CCCNC(=N)N)NC(=O)[C@@H](Cc2ccccc2)NC(=O)[C@H]([C@@H](C)OCc2ccccc2)NC1=O [compound 14, Ac-Arg-cyclo(Asp- Thr(Bzl)-D-Phe-Arg- Trp-Lys)-NH2] (Ac-RDT(Bn)[dF]RWK-NH2; lactam 2-7)	1
CC(=O)N[C@@H](CCCNC(=N)N)C(=O)N[C@H]1CC(=O)NCCCC[C@@H](C(N)=O)NC(=O)[C@H](Cc2c[nH]c3ccccc23)NC(=O)[C@H](CCCNC(=N)N)NC(=O)[C@@H](Cc2cccc3ccccc23)NC(=O)[C@H](Cc2c[nH]cn2)NC1=O [compound 19, Ac-Arg-cyclo(Asp-His- D-Nal 1-Arg-Trp-Lys)- NH2]	3
CC(=O)N[C@@H](CCCNC(=N)N)C(=O)N[C@H]1CC(=O)NCCCC[C@@H](C(N)=O)NC(=O)[C@H](Cc2c[nH]c3ccccc23)NC(=O)[C@H](CCCNC(=N)N)NC(=O)[C@@H](Cc2ccccc2)NC(=O)[C@H](Cc2cccc(C(N)=O)c2)NC1=O [compound 49, Ac-Arg-cyclo(Asp-Phe- (3-(C(═O)—NH2))-D-Phe- Arg-Trp-Lys)-NH2]	15
CC(=O)N[C@@H](CCCNC(=N)N)C(=O)N[C@H]1CC(=O)NCCCC[C@@H](C(N)=O)NC(=O)[C@H](Cc2c[nH]c3ccccc23)NC(=O)[C@H](CCCNC(=N)N)NC(=O)[C@@H](Cc2ccccc2)NC(=O)[C@H](Cc2ccc(C(N)=O)cc2)NC1=O [compound 50, Ac-Arg-cyclo(Asp- Phe(4-(C(═O)—NH2))-D- Phe-Arg-Trp-Lys)-NH2]	30
CC(=O)N[C@@H](CCCNC(=N)N)C(=O)N[C@H]1CC(=O)NCCCC[C@@H](C(=O)O)NC(=O)[C@H](Cc2c[nH]c3ccccc23)NC(=O)[C@H](CCCNC(=N)N)NC(=O)[C@@H](Cc2ccccc2)NC(=O)[C@@H]2C[C@@H](OCc3ccccc3)CN2C1=O [compound 54, Ac-Arg-cyclo(Asp- Hyp(Bzl)-D-Phe-Arg- Trp-Lys)-OH]	3
CC(=O)N[C@@H](CCCNC(=N)N)C(=O)N[C@H]1CC(=O)NCCCC[C@@H](C(=O)O)NC(=O)[C@H](Cc2c[nH]c3ccccc23)NC(=O)[C@H](CCCNC(=N)N)NC(=O)[C@@H](Cc2ccccc2)NC(=O)[C@@H]2C[C@@H](Cc3ccccc3)CN2C1=O [compound 55, Ac-Arg-cyclo(Asp- Pro(Bn)-D-Phe-Arg- Trp-Lys)-OH]	12
CC(=O)N[C@@H](CCCNC(=N)N)C(=O)N[C@H]1CC(=O)NCCCC[C@@H](C(N)=O)NC(=O)[C@H](Cc2c[nH]c3ccccc23)NC(=O)[C@H](CCCNC(=N)N)NC(=O)[C@@H](Cc2ccccc2)NC(=O)[C@H](CCC(N)=O)NC1=O [compound 57, Ac-Arg-cyclo(Asp-Gln- D-Phe-Arg-Trp-Lys)-OH]	115
CC(=O)N[C@@H](CCCNC(=N)N)C(=O)N[C@H]1CC(=O)NCCCC[C@@H](C(=O)O)NC(=O)[C@H](Cc2c[nH]c3ccccc23)NC(=O)[C@H](CCCNC(=N)N)NC(=O)[C@@H](Cc2ccccc2)NC(=O)[C@H](CCCN)NC1=O [compound 58, Ac-Arg-cyclo(Asp-Orn- D-Phe-Arg-Trp-Lys)-OH]	23
CC(=O)N[C@@H](CCCNC(=N)N)C(=O)N[C@H]1CC(=O)NCCCC[C@@H](C(N)=O)NC(=O)[C@H](Cc2c[nH]c3ccccc23)NC(=O)[C@H](CCCNC(=N)N)NC(=O)[C@@H](Cc2ccccc2)NC(=O)CN(C)C1=O [compound 63, Ac-Arg-cyclo(Asp-Sar- D-Phe-Arg-Trp-Lys)- NH2]	15
CC(=O)N[C@@H](CCCNC(=N)N)C(=O)N[C@H]1CCCNC(=O)CC[C@@H](C(N)=O)NC(=O)[C@H](Cc2c[nH]c3ccccc23)NC(=O)[C@H](CCCNC(=N)N)NC(=O)[C@@H](Cc2ccccc2)NC(=O)[C@H](Cc2c[nH]cn2)NC1=O [compound 75, Ac-Arg-cyclo(Orn-His- D-Phe-Arg-Trp-Glu)- NH2] (HELM PEPTIDE1{[ac].R.[Orn].H.[dF].R.W.E.[am]}$PEPTIDE1,PEPTIDE1,3:R3-8:R3$$$V2.0)	0.6
CC(=O)N[C@@H](CCCNC(=N)N)C(=O)N[C@H]1CC(=O)NCCCC[C@@H](C(N)=O)NC(=O)[C@H](Cc2c[nH]c3ccccc23)NC(=O)[C@H](CCCNC(=N)N)NC(=O)[C@@H](Cc2ccccc2)NC(=O)[C@@H]2C[C@@H](O)CN2C1=O [compound 79, Ac-Arg-cyclo(Asp-Hyp- D-Phe-Arg-Trp-Lys)- NH2]	4
CC(=O)N[C@@H](CCCNC(=N)N)C(=O)N[C@H]1CCC(=O)NCCC[C@@H](C(=O)O)NC(=O)[C@H](Cc2c[nH]c3ccccc23)NC(=O)[C@H](CCCNC(=N)N)NC(=O)[C@@H](Cc2ccccc2)NC(=O)[C@H](Cc2c[nH]cn2)NC1=O [compound 82, Ac-Arg-cyclo(Glu-His- D-Phe-Arg-Trp-Orn)- OH] (HELM PEPTIDE1{[ac].R.E.H.[dF].R.W.[Orn]}$PEPTIDE1,PEPTIDE1,3:R3-8:R3$$$V2.0)	4
CC(=O)N[C@@H](CCCNC(=N)N)C(=O)N[C@H]1CCC(=O)NCCC[C@@H](C(=O)O)NC(=O)[C@H](Cc2c[nH]c3ccccc23)NC(=O)[C@H](CCCNC(=N)N)NC(=O)[C@@H](Cc2ccccc2)NC(=O)[C@H](CCCN)NC1=O [compound 90, Ac-Arg-cyclo(Glu-Orn- D-Phe-Arg-Trp-Orn)- OH]	9
N=C(N)NCCC[C@@H]1NC(=O)[C@@H](Cc2ccccc2)NC(=O)[C@H](Cc2c[nH]cn2)NC(=O)[C@@H](NC(=O)[C@@H](N)CCCNC(=N)N)CCCNC(=O)CC[C@@H](C(N)=O)NC(=O)[C@H](Cc2c[nH]c3ccccc23)NC1=O [compound 99, Arg-cyclo(Orn-His-D- Phe-Arg-Trp-Glu)-NH2] (HELM PEPTIDE1{R.[Orn].H.[dF].R.W.E.[am]}$PEPTIDE1,PEPTIDE1,2:R3-7:R3$$$V2.0)	6
CC(=O)N[C@@H](CCCNC(=N)N)C(=O)N[C@H]1CCC(=O)NCCC[C@@H](C(N)=O)NC(=O)[C@H](Cc2c[nH]c3ccccc23)NC(=O)[C@H](CCCNC(=N)N)NC(=O)[C@@H](Cc2ccccc2)NC(=O)[C@H](CC[S+](C)[O-])NC1=O (stereo partly drawn) [compound 111, Ac-Arg-cyclo(Glu- Met(═O)-D-Phe-Arg- Trp-Orn)-NH2]	9
CC(=O)N[C@@H](CCCNC(=N)N)C(=O)N[C@H]1CC(=O)NCCCC[C@@H](C(N)=O)NC(=O)[C@H](Cc2c[nH]c3ccccc23)NC(=O)[C@H](CCCNC(=N)N)NC(=O)[C@@H](Cc2ccccc2)NC(=O)[C@H](CO)NC1=O [compound 117, Ac-Arg-cyclo(Asp-Ser- D-Phe-Cit-Trp-Lys)-NH2]	1450
CC(=O)N[C@@H](CCCNC(=N)N)C(=O)N[C@H]1CCCCNC(=O)C[C@@H](C(N)=O)NC(=O)[C@H](Cc2c[nH]c3ccccc23)NC(=O)[C@H](CCCNC(=N)N)NC(=O)[C@@H](Cc2ccccc2)NC(=O)[C@H](CCN)NC1=O [compound 121, Ac-Arg-cyclo(Lys-Dab- D-Phe-Arg-Trp-Asp)- NH2] (HELM PEPTIDE1{[ac].R.K.[Dab].[dF].R.W.D.[am]}$PEPTIDE1,PEPTIDE1,3:R3-8:R3$$$V2.0)	0.4
CC(=O)N[C@@H](CCCNC(=N)N)C(=O)N[C@H]1CC(=O)NCCCC[C@@H](C(=O)NC2CC2)NC(=O)[C@H](Cc2c[nH]c3ccccc23)NC(=O)[C@H](CCCNC(=N)N)NC(=O)[C@@H](Cc2ccccc2)NC(=O)[C@H](CCN)NC1=O [compound 122, Ac-Arg-cyclo(Asp-Dab- D-Phe-Arg-Trp-Lys)- NH-cyclopropyl]	3
CC(=O)N[C@@H](CCCNC(=N)N)C(=O)N[C@H]1CCCCNC(=O)C[C@@H](C(=O)O)NC(=O)[C@H](Cc2c[nH]c3ccccc23)NC(=O)[C@H](CCCNC(=N)N)NC(=O)[C@@H](Cc2ccccc2)NC(=O)[C@H](CCN)NC1=O [compound 131, Ac-Arg-cyclo(Lys-Dab- D-Phe-Arg-Trp-Asp)- OH] (HELM PEPTIDE1{[ac].R.K.[Dab].[dF].R.W.D}$PEPTIDE1,PEPTIDE1,3:R3-8:R3$$$V2.0)	35
CC(=O)N[C@@H](CCCNC(=N)N)C(=O)N[C@H]1CCNC(=O)CCC[C@@H](C(=O)O)NC(=O)[C@H](Cc2c[nH]c3ccccc23)NC(=O)[C@H](CCCNC(=N)N)NC(=O)[C@@H](Cc2ccccc2)NC(=O)[C@H](CCN)NC1=O [compound 136, Ac-Arg-cyclo(Dab-Dab- D-Phe-Arg-Trp-hGlu)- OH]	35
N=C(N)NCCC[C@H](NC(=O)CC1CCCCC1)C(=O)N[C@H]1CC(=O)NCCCC[C@@H](C(N)=O)NC(=O)[C@H](Cc2c[nH]c3ccccc23)NC(=O)[C@H](CCCNC(=N)N)NC(=O)[C@@H](Cc2ccccc2)NC(=O)[C@H](CCN)NC1=O [compound 139, Cyclohexylacetyl-Arg- cyclo(Asp-Dab-D-Phe- Arg-Trp-Lys)-NH2]	1
N=C(N)NCCC[C@H](NC(=O)Cc1ccccc1)C(=O)N[C@H]1CC(=O)NCCCC[C@@H](C(N)=O)NC(=O)[C@H](Cc2c[nH]c3ccccc23)NC(=O)[C@H](CCCNC(=N)N)NC(=O)[C@@H](Cc2ccccc2)NC(=O)[C@H](CCN)NC1=O [compound 140, Phenylacetyl-Arg- cyclo(Asp-Dab-D-Phe- Arg-Trp-Lys)-NH2]	2
